Tested on: Rat superior cervical ganglion neurons
Experiment: Sympathetic neuronal NGF deprivation assay (GAP-43 ELISA and cell counts)
Type: cell-based
Conditions: for Survival, Cell Counts Mean / Survival, ELISA Data Mean: 72 hours; for Survival, ELISA Data Mean: GAP-43 ELISA
Procedure: Activation of c-jun-N-terminal kinase (JNK) has been implicated in apoptosis in sympathetic neurons. An inhibitor of JNK, Example 2, was tested for neuroprotective effects in two models of sympathetic neuronal cell death.
In the second model, ganglia were dissociated and plated in the presence of NGF 25 ng/ml for 4 days. The NGF was then removed by washing and application of a blocking antibody, and L-790,984 coadministered for 72 hours. Survival was then assayed using the GAP-43 ELISA. This model will be referred to hereafter as the ‘NGF deprivation assay’.
Ganglia were enzymatically dissociated using 0.25% trypsin for 45 minutes. The trypsin was then inhibited using Dulbecco's MEM (DMEM) supplemented with 10% fetal bovine serum, and the cells mechanically triturated using a pipette tip to form a single cell suspension. Neurons in the suspension were counted using a haemocytometer, and plated at a density of 3000-5000 neurons per well in poly-D-lysine and laminin coated 96 well tissue culture clusters in DMEM supplemented with B27 serum substitute. Cultures were then incubated at 37° C./5% CO2. One hour following plating, cultures were either treated with NGF 25 ng/ml or with L-790,984 at a range of concentrations for the NGF deprivation and survival assays respectively.
Cultures for the NGF deprivation assay were returned to the incubator for 4 days. Following this, the medium was aspirated, plates washed once with DMEM/B27, and the cultures treated with Example 2 at concentrations ranging from 1 nM to 10 μM, together with an anti-NGF blocking antibody at 250 ng/ml. Cultures were then returned to the incubator for a further 72 hours prior to fixation and survival quantification. Cultures treated with Example 2 immediately for the survival assay were returned to the incubator for 48 hours; cultures were then fixed and survival quantified using the GAP-43 ELISA.
Cultures were fixed by the addition of an equal volume 4% paraformaldehyde to each well for 10 minutes; this was then aspirated, and replaced by a further volume of 4% paraformaldehyde for a further 20 minutes at room temperature. Plates were then washed three times with PBS/0.3% TX100, and non-specific binding sites blocked by the addition of 5% normal horse serum (NHS) in PBS/0.3% TX100. Plates were incubated at room temperature for one hour, then the blocking serum was aspirated without washing and replaced with primary antibody. The primary antibody used was a mouse monoclonal antibody raised against Growth Associated Protein 43 (Sigma), prepared at a dilution of 1:500 in PBS/0.3% TX100/5% NHS. Primary antibody was added to all sample wells, with four control wells returned to blocking serum to act as minus primary control. Plates were then refrigerated overnight at 4° C. The next day, plates were washed three times with PBS/0.3 TX100 and secondary antibody added. The secondary antibody used was peroxidase conjugated sheep anti-mouse IgG, and was added at a dilution of 1:1000 in PBS/0.3% TX100/5% NHS. Plates were incubated for 1 hour at room temperature, then washed three times with PBS/0.3% TX100, and K-Blue insoluble peroxidase substrate added for 30 minutes at room temperature. The optical density of the plates was then read at 650 nm, and the survival of neurons calculated and expressed as percentage of the control response.
Cell counts were performed on one sample plate for each model of sympathetic neuronal cell death, by the addition of a tertiary antibody to the plate, followed by avidin-biotin complex and an insoluble peroxidase substrate. Following quantification of optical density, plates were washed three times in PBS/0.3% TX100, and non-specific sites blocked using PBS/0.3% TX100/5% normal rabbit serum (“NRS”). Plates were incubated for one hour at room temperature, then the blocking serum was aspirated and replaced with biotinylated rabbit anti-sheep IgG at a dilution of 1:500 in PBS/0.3% TX10O/5% NRS. […]

CCCn1c(C2CCN(C)CC2)nc(-c2ccc(Cl)c(Cl)c2)c1-c1ccnc(NC2CC2)n1 [Example 2, Cyclopropyl-{4-[5-(3,4-dichlorophenyl)-2-[(1-methyl)-piperidin]-4-yl-3-propyl-3H-imidazol-4-yl]-pyrimidin-2-yl}amine]
Survival, Cell Counts Mean (0.001 μM + anti-NGF 250 ng/ml): 82.00 | Survival, ELISA Data Mean (0.001 μM + anti-NGF 250 ng/ml): 35.44 | Survival, Cell Counts Mean (0.01 μM + anti-NGF 250 ng/ml): 81.00 | Survival, ELISA Data Mean (0.01 μM + anti-NGF 250 ng/ml): 28.20 | Survival, Cell Counts Mean (0.1 μM + anti-NGF 250 ng/ml): 53.75 | Survival, ELISA Data Mean (0.1 μM + anti-NGF 250 ng/ml): 22.89 | Survival, Cell Counts Mean (0.5 μM + anti-NGF 250 ng/ml): 140.25 | Survival, ELISA Data Mean (0.5 μM + anti-NGF 250 ng/ml): 60.15 | Survival, Cell Counts Mean (1 μM + anti-NGF 250 ng/ml): 200.00 | Survival, ELISA Data Mean (1 μM + anti-NGF 250 ng/ml): 102.79 | Concentrations at which the survival response was significant (measured by ELISA): ≥ 500 nM | Concentrations at which the survival response was significant (measured by cell counts): ≥ 500 nM

From patent publication US20020032183A1, “Use of (di-substituted-phenyl)-pyrimidinyl-imidazole derivatives as JNK-inhibitors” (priority 2000, published 2002)
